Values of other authors as cited in patent publication US20250288613A1, “COMPOSITIONS AND METHODS TARGETING SAT1 FOR ENHANCING ANTI-TUMOR IMMUNITY DURING TUMOR PROGRESSION” (THE BRIGHAM AND WOMEN’S HOSPITAL, INC., priority 2022, published 2025).

Target: human spermidine/spermine acetyltransferase (SSAT) (Homo sapiens, UniProt P21673)
Settings: competitive inhibition; spermidine as substrate

Chain of human spermidine/spermine acetyltransferase (SSAT) (P21673 whole entry): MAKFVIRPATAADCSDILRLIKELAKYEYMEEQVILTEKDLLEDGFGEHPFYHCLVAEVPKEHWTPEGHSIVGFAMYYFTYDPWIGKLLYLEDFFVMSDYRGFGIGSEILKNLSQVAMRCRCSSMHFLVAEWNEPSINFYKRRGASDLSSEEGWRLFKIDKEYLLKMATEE

| Compound | Ki |
| --- | --- |
| N=C(N)c1ccc(/N=N/Nc2ccc(C(=N)N)cc2)cc1 [berenil, 4,4′-(1-Triazene-1,3-diyl)bis(benzenecarboximidamide)] | 2000 nM |
| N=C(N)c1ccc(OCCCCCOc2ccc(C(=N)N)cc2)cc1 [Pentamidine] | 2400 nM |
